Source: patent publication US9005580B2, “Treatment of renal cell carcinoma” (priority 2010, dated 2015)

Assays:
xenografts in nude mice = conditions: in some cases; cited from earlier work
[1] = compared to BCNU; cited from earlier work
[2] = system: human renal cell carcinomas (SKRC-7, 786-0); format: cell-based
Sprague-Dawley rats = conditions: corresponding amounts of unconjugated Orellanine, within four days; cited from earlier work
human renal cancer cells = conditions: cells derived from a primary tumor or from metastatic tumor tissue; cited from earlier work

Structure (SMILES): Cc1cc(N(CCOS(C)(=O)=O)CCOS(C)(=O)=O)ccc1C=O [NSC-281612]
- effect on tumor mass (xenografts in nude mice): apparently complete eradication of the tumor mass

Structure (SMILES): O=NN(CCCl)C(=O)NCCO [HECNU, 1-(2-chloroethyl)-1-nitroso-3-(2-hydroxyethyl)urea]
- water solubility [1]: improved water solubility

Structure (SMILES): [O-][n+]1ccc(O)c(O)c1-c1c(O)c(O)cc[n+]1[O-] [Orellanine, 3,3′,4,4′-tetrahydroxy-2,2′-bipyridine-N,N′-dioxide]
- correlation between exposure concentration and fraction of cells that die [2]: clear correlation
- delay between administration and onset of cell death [2]: 48 h
- loss of GFR (Sprague-Dawley rats): almost total loss of GFR
- killing of renal cancer cells (human renal cancer cells): kills them with great efficiency
